The text below walks through data of article PMC11997999, “Uncovering α-Selectivity for Liver X Receptor Agonists for Lipotoxic Cancer Therapies” (Journal of Medicinal Chemistry, 2025).

The target of one assay is T1, LXRα LBD (GST) (Homo sapiens, UniProt Q13133).
T1 construct: 5 nM LXRα LBD (GST); 10 nM LXRβ LBD (GST); purchased ThermoFisher Scientific PV4655
T1 sequence (Q13133 209-447 limits assumed): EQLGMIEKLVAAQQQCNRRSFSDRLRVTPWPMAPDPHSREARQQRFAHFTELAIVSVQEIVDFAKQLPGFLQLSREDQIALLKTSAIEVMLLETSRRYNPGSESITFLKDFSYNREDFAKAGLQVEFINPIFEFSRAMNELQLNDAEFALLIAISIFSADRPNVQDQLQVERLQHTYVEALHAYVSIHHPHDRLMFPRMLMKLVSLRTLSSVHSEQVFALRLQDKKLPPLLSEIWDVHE
The assay can be described thus: Time-resolved LXR FRET assay (LanthaScreen TR-FRET LXRα Coactivator Assay Kit). The format is biochemical. The conditions noted are these: for TR-FRET activity on LXRα, in words: statement made for both isoforms. Here is the method: (§1) The biochemical TR-FRET assays were performed using the LanthaScreen TR-FRET LXRα Coactivator Assay Kit, goat (ThermoFisher Scientific, PV4655), and the LanthaScreen TR-FRET LXRβ assay kit, goat (ThermoFisher Scientific, PV4658), according to the manufacturer’s instructions using the following concentrations: 5 nM LXRα LBD (GST); 10 nM LXRβ LBD (GST); 500 nM fluorescein-TRAP220/DRIP-2; 200 nM fluorescein-D22; 10 nM Tb anti-GST antibody. The TR-FRET signals were measured after 6 h using a TECAN SPARK multimode microplate reader with the following settings: first excitation wavelength: 360 nm (bandwidth 35 nm), first emission wavelength: 485 nm (bandwidth 20 nm); second excitation wavelength: 360 nm (bandwidth 35 nm), second emission wavelength: 535 nm (bandwidth 25 nm); integration time: 200 μs; lag time: 100 μs; settle time: 0 ms.
In general terms: In TR-FRET formats the signal depends on donor and acceptor labels being close together.

A further assay has as its target T2, LXRα (Homo sapiens, UniProt Q13133).
T2 construct: To measure the activity of the remaining isoform under treatment; endogenous in cells; host or cells: Hep3B (NR1H2 knockout, LXRE-GFP reporter)
T2 sequence (Q13133 1-447): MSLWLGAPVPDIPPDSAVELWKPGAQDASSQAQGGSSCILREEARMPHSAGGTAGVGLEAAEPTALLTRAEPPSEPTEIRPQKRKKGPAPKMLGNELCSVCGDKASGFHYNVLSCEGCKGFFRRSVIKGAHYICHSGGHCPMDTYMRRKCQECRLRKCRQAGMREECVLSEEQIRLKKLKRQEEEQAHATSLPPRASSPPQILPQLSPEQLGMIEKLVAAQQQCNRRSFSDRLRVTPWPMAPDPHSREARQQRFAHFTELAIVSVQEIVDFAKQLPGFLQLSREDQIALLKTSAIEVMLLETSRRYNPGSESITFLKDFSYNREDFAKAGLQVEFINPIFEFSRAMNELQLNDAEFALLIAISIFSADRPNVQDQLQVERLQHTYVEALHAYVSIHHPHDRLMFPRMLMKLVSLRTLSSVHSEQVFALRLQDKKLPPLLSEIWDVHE
The assay can be described thus: LXRα-specific LXRE-GFP reporter assay in Hep3B cells (NR1H2 knockout). The format is cell-based. The conditions noted are these: 48h of treatment, GFP by FACS. A general note: A reporter such as luciferase makes a cellular process visible.

The target of a further assay is T3, LXRβ (Homo sapiens, UniProt P55055).
T3 construct: To measure the activity of the remaining isoform under treatment; endogenous in cells; host or cells: Hep3B (NR1H3 knockout, LXRE-GFP reporter)
T3 sequence (P55055 1-460): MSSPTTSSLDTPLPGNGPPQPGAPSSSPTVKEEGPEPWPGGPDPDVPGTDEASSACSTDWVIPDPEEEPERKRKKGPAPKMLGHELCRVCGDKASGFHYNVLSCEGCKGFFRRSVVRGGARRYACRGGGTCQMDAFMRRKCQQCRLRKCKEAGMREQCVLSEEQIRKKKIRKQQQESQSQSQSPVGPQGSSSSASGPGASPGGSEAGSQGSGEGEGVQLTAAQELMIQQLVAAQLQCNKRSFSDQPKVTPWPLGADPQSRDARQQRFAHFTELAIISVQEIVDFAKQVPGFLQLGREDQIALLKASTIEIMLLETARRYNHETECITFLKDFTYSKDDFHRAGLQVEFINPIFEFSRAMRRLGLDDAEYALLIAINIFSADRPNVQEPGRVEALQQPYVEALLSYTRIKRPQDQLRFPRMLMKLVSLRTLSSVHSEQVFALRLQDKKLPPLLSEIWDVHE
The assay can be described thus: LXRβ-specific LXRE-GFP reporter assay in Hep3B cells (NR1H3 knockout). The format is cell-based. The conditions noted are these: 48h of treatment, GFP by FACS.

The next assay deals with T4, LXRβ LBD (GST) (Homo sapiens, UniProt P55055).
T4 construct: 5 nM LXRα LBD (GST); 10 nM LXRβ LBD (GST); purchased ThermoFisher Scientific PV4658
T4 sequence (P55055 222-460 limits assumed): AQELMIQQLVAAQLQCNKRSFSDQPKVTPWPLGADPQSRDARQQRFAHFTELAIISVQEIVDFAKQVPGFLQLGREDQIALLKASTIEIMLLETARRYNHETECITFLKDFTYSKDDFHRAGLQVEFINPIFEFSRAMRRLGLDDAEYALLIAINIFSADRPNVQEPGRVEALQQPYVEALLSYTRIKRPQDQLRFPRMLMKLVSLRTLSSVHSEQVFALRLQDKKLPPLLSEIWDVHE
The assay can be described thus: Time-resolved LXR FRET assay (LanthaScreen TR-FRET LXRβ assay kit). The conditions noted are these: for TR-FRET activity on LXRβ, in words: statement made for both isoforms. The format is biochemical. Here is the method:
as §1

A further assay concerns Hep3B cells. In words: Cell viability analysis in Hep3B cells (CellTiter-Glo). The format is cell-based, human. The conditions noted are these: 5 d, 2 μM. Here is the method:
To determine the therapeutic efficacy of compound 40 in HCC cells, we next tested its effect on Hep3B cell viability in combination with the DFG-out Raf inhibitor sorafenib (2 μM).
For organoid treatment studies, digestion of organoids was performed using TrypLE Express (Gibco) supplemented with 100 μg/mL DNaseI and 10.5 μM Y-27632 dihydrochloride (Invitrogen) at 37 °C, and afterward, single-cells were plated in white 96 well plates (Sarstedt) in a mixture of 10% Matrigel (Growth Factor Reduced (GFR) Matrigel, Corning) in culture medium. Cell viability was determined after 5 days of treatment using the CellTiter-Glo 3D Cell Viability Assay Kit (Promega). Cell viability of Hep3B, AML12, and BNL CL.2 cells was determined after 5 days of treatment in white 96 well plates (Sarstedt) using the CellTiter-Glo 2.0 Cell Viability Assay Kit (Promega). AML12 and BNL CL.2 cells were also obtained from the American Type Culture Collection. The luminescence signal was measured using an […] M PLEX plate reader (Tecan) and the Tecan i-control software (v3.9.1). Sodium oleate (Selleckchem) was dissolved in methanol and added to cells at a final concentration of 200 μM.
(Cellular ATP, detected with luciferase, serves as a proxy for viable cell number.)

Where [1] appears, read: 5 nM LXRα LBD (GST), read after 6 h, R^2 of fit given, read-out: TR-FRET activity (EC50) LXRα.
[2] abbreviates: 10 nM LXRβ LBD (GST), read after 6 h, R^2 of fit given, read-out: TR-FRET activity (EC50) LXRβ.

Where two headings read alike, the source gives them in different places.

For the compound `NC1CCN(c2ccc(NC3=C(c4ccccc4)C(=O)N(Cc4ccccc4)C3=O)cc2)CC1` [Compound 46, 3-((4-(4-Aminopiperidin-1-yl)phenyl)amino)-1-benzyl-4-phenyl-1H-pyrrole-2,5-dione], the EC50 on LXRα LBD (GST) (setting [1]) was found to be 630 nM; at LXRα, 1480 nM; at LXRβ it was 1250 nM; on LXRβ LBD (GST) (setting [2]), 120 nM.

Consider `CNC(=O)c1cc(Oc2ccc(NC(=O)Nc3ccc(Cl)c(C(F)(F)F)c3)cc2)ccn1` [sorafenib, reference compound], for which the “therapeutic effect on cell viability, sorafenib monotherapy” value in the assay with Hep3B cells is recorded as “only a low therapeutic effect”.

With `CC(C)(C)N1C(=O)C(Nc2ccc(N3CCCCC3)cc2)=C(c2ccccc2)C1=O` [Compound 51, 1-(tert-Butyl)-3-phenyl-4-((4-(piperidin-1-yl)phenyl)amino)-1H-pyrrole-2,5-dione], the EC50 stood at 36 nM on LXRα LBD (GST) (setting [1]), 19 nM on LXRα, 113 nM on LXRβ and 156 nM at LXRβ LBD (GST) (setting [2]).

As to `COc1ccc(NC2=C(c3ccccc3)C(=O)N(Cc3ccccc3)C2=O)cc1` [GSK3987 (3), 1-Benzyl-3-((4-methoxyphenyl)amino)-4-phenyl-1H-pyrrole-2,5-dione, reference compound], the EC50 on LXRα LBD (GST) (setting [1]) worked out at 154 nM; at LXRα it was 99 nM; at LXRβ it was 248 nM; on LXRβ LBD (GST) (setting [2]), 180 nM.

In the case of `COc1ccc(NC2=C(c3ccccc3)C(=O)N(Cc3ccc(C(F)(F)F)cc3)C2=O)cc1` [Compound 18, 3-((4-Methoxyphenyl)amino)-4-phenyl-1-(4-(trifluoromethyl)benzyl)-1H-pyrrole-2,5-dione], the EC50 at LXRα LBD (GST) (setting [1]) and at LXRβ LBD (GST) (setting [2]) was greater than 3000 nM throughout. Moreover, the “TR-FRET activity on LXRα, in words” value on LXRα LBD (GST) is “completely lost potency”. The “TR-FRET activity on LXRβ, in words” value at LXRβ LBD (GST) is on record as “completely lost potency”.

For `NC(=O)c1ccc(NC2=C(c3ccccc3)C(=O)N(Cc3ccccc3)C2=O)cc1` [Compound 36, 4-((1-Benzyl-2,5-dioxo-4-phenyl-2,5-dihydro-1H-pyrrol-3-yl)amino)benzamide], the EC50 at LXRα LBD (GST) (setting [1]) and on LXRβ LBD (GST) (setting [2]) was greater than 3000 nM each time. The “TR-FRET activity on LXRα, in words” value at LXRα LBD (GST) was “completely abolished activation”. The “TR-FRET activity on LXRβ, in words” value on LXRβ LBD (GST) is on record as “completely abolished activation”.

Consider `COc1ccc(NC2=C(c3ccccc3)C(=O)NC2=O)cc1` [Compound 25, 3-((4-Methoxyphenyl)amino)-4-phenyl-1H-pyrrole-2,5-dione], for which the EC50 at LXRα LBD (GST) (setting [1]) and on LXRβ LBD (GST) (setting [2]) was greater than 3000 nM throughout. Also, the “TR-FRET activity on LXRα, in words” value on LXRα LBD (GST) was “no activity”. The “TR-FRET activity on LXRβ, in words” value at LXRβ LBD (GST) is listed as “no activity”.

For `O=C1C(Nc2ccc(N3CCOCC3)cc2)=C(c2ccccc2)C(=O)N1Cc1ccccc1` [Compound 41, 1-Benzyl-3-((4-morpholinophenyl)amino)-4-phenyl-1H-pyrrole-2,5-dione], the EC50 at LXRα LBD (GST) (setting [1]) was 35 nM; on LXRβ LBD (GST) (setting [2]), 106 nM.

Take `COc1ccc(NC2=C(c3ccccc3)C(=O)N(Cc3ccc(C(C)(C)C)cc3)C2=O)cc1` [Compound 20, 1-(4-(tert-Butyl)benzyl)-3-((4-methoxyphenyl)amino)-4-phenyl-1H-pyrrole-2,5-dione]: the EC50 at LXRα LBD (GST) (setting [1]) and at LXRβ LBD (GST) (setting [2]) was greater than 3000 nM each time.

On to `O=C1C(Nc2ccc(O)cc2)=C(c2ccccc2)C(=O)N1Cc1ccccc1` [Compound 33, 1-Benzyl-3-((4-hydroxyphenyl)amino)-4-phenyl-1H-pyrrole-2,5-dione], for which the EC50 at LXRα LBD (GST) (setting [1]) turned out to be 390 nM; at LXRβ LBD (GST) (setting [2]), 206 nM.

On to `COc1ccc(NC2=C(c3ccccc3)C(=O)N(CC3CCCCC3)C2=O)cc1` [Compound 22, 1-(Cyclohexylmethyl)-3-((4-methoxyphenyl)amino)-4-phenyl-1H-pyrrole-2,5-dione], for which the EC50 on LXRα LBD (GST) (setting [1]) amounted to 1960 nM; on LXRβ LBD (GST) (setting [2]) it was 2590 nM.

In the case of `COc1ccc(CNC2=C(c3ccccc3)C(=O)N(Cc3ccccc3)C2=O)cc1` [Compound 28, 1-Benzyl-3-((4-methoxybenzyl)amino)-4-phenyl-1H-pyrrole-2,5-dione], the EC50 at LXRα LBD (GST) (setting [1]) and on LXRβ LBD (GST) (setting [2]) was greater than 3000 nM in each case. In addition, the “TR-FRET activity on LXRα, in words” value at LXRα LBD (GST) is listed as “no activity”. Besides, the “TR-FRET activity on LXRβ, in words” value at LXRβ LBD (GST) is listed as “no activity”.

As to `O=C1CCN(c2ccc(NC3=C(c4ccccc4)C(=O)N(Cc4ccccc4)C3=O)cc2)CC1` [Compound 49, 1-Benzyl-3-((4-(4-oxopiperidin-1-yl)phenyl)amino)-4-phenyl-1H-pyrrole-2,5-dione], the EC50 at LXRα LBD (GST) (supplement list of compounds, LXRα, unit inferred, read-out: FRET activity a) was 103 nM; at LXRβ LBD (GST) (supplement list of compounds, (LXRβ), unit inferred, read-out: FRET activity b), 130 nM.

Take `O=C1C(Nc2ccccc2)=C(c2ccccc2)C(=O)N1Cc1ccccc1` [Compound 29, 1-Benzyl-3-phenyl-4-(phenylamino)-1H-pyrrole-2,5-dione]: the EC50 at LXRα LBD (GST) (setting [1]) amounted to 312 nM; on LXRβ LBD (GST) (setting [2]) it was 265 nM.
